Experimental data published in patent US20240287089A1, “Preparation and Uses of 7-Azaindenoisoquinolines” (Purdue Research Foundation, priority 0001, published 2024).
Like-named read-outs stand apart in the source and are kept apart here.

Experiments:
Caco-2 cells = assay: Caco-2 permeability; type: in vitro ADME; conditions: for Efflux Ratio / Recovery (%)AP-BL / Recovery (%)BL-AP: Caco-2; for Papp (A→B) / Papp (B→A): Caco-2, 5 μM, 2 h
Method: Caco-2 Permeability Studies. The Caco-2 plate was removed from the incubator and washed twice with pre-warmed HBSS (10 mM HEPES, pH 7.4), and then incubated at 37° C. for 30 min. The stock solutions of controls compounds were diluted in DMSO to get 1 mM solutions and then diluted with HBSS (10 mM HEPES, pH 7.4) to get 5 μM working solutions. The stock solutions of the test compounds were diluted in DMSO to get 1 mM solutions and then diluted with HBSS (10 mM HEPES, pH 7.4) to get 5 μM working solutions. The final concentration of DMSO in the incubation system was 0.5%. To determine the rate of drug transport in the apical to basolateral direction, 75 μL of 5 μM working solutions of test compounds was added to the Transwell insert (apical compartment) and the wells in the receiver plate (basolateral compartment) were filled with 235 μL of HBSS (10 mM HEPES, pH 7.4). To determine the rate of drug transport in the basolateral to apical direction, 235 μL of 5 μM working solutions of test compounds were to the receiver plate wells (basolateral compartment) and then the Transwell inserts (apical compartment) were filled with 75 μL of HBSS (10 mM HEPES, pH 7.4). Time 0 samples were prepared by transferring 50 μL of 5 μM working solution to wells of the 96-deepwell plate, followed by the addition of 200 μL cold methanol containing appropriate internal standards (IS). The plates were incubated at 37° C. for 2 h. […] An aliquot of 100 μL of the supernatant was mixed with an appropriate volume of ultra-pure water before LC-MS/MS analysis. To determine the Lucifer Yellow leakage after 2 h transport period, stock solution of Lucifer yellow was prepared in ultra-pure water and diluted with HBSS (10 mM HEPES, pH 7.4) to reach the final concentration of 100 μM and then 100 μL of the Lucifer yellow solution was added to each Transwell insert (apical compartment), followed by filling the wells in the receiver plate (basolateral compartment) with 300 μL of HBSS (10 mM HEPES, pH 7.4). The plates were incubated at 37° C. for 30 minutes. Samples (80 μL) were removed directly from the apical and basolateral wells (using the basolateral access holes) and transferred to wells of new 96 wells plates.

[1] = Maximum tolerated dose determination in NOD SCID mice; type: in vivo; conditions: QD x 5; for Body Weight %: 7 days after first dose; for Maximum tolerated dose (MTD): NOD SCID mice, IV, body weight % ≥80%
Method: Maximum Tolerated Dose Determinations. […]. […] Experiments involving 100 mg/kg doses of all three drugs were terminated after one day because of toxicity, while the study involving 50 mg/kg dose of G105 was also halted after one day (FIG. 12). Similarly, the investigation with a 40 mg/kg dose of G105 was discontinued after two days (FIG. 13).

γ-H2AX = assay: Western blot of MOLT-4 tumor xenograft tissue; type: in vivo, human
From the text: In several cases, the levels of c-Myc were more greatly depressed at the lower dose level. For examples, see the 9-hour data for G104 in Tables 17 and 18 and the 6-hour data in Table 19. […] Overall, there are many unexpected and unexplained aspects of the data in Tables 17-19, which are highly variable and also highly dependent on cell type. In particular, drug-induced increases in c-Myc expression relative to control and the larger changes in c-Myc expression seen at lower vs. higher doses are counterintuitive and unexplained.

DU-145 (Prostate) = assay: NCI-60 cytotoxicity assay; type: cell-based, human; conditions: Prostate DU-145, 48 h, read-out: Cytotoxicity GI50
Method: (§1) The antiproliferative activities of the indenoisquinoline compounds are determined in the NCI-60 cancer cell lines of the National Cancer Institute Developmental Therapeutics Program (NCI-DTP). […] Cancer cells are incubated with the test compounds at five concentrations ranging from 100 μM to 10 nM for 48 h. After the treated cancer cells are stained with sulforhodamine B dye, the percentage growth is plotted as a function of the common logarithm of the tested compound concentration. […] The approximate average of GI50 values across the entire panel of NCI-60 cancer cell lines for each compound is recorded as the MGM value.
(§2) NCI-60 Cytotoxicity Assay. Compounds were submitted to the National Cancer Institute Developmental Therapeutic Program to determine their growth-inhibitory potentials in NCI-60 cell lines. All compounds satisfied the pre-screening proceeded into the 5-dose cell viability assay, in which cells were treated for 48 h at 5 dosages ranging from 100 μM to 10 nM.

HCT-116 (Colon) = assay: NCI-60 cytotoxicity assay; type: cell-based, human; conditions: Colon HCT-116, 48 h, read-out: Cytotoxicity GI50
Method: as §1, §2

HOP-62 (Lung) = assay: NCI-60 cytotoxicity assay; type: cell-based, human; conditions: Lung HOP-62, 48 h, read-out: Cytotoxicity GI50
Method: as §1, §2

MCF7 (Breast) = assay: NCI-60 cytotoxicity assay; type: cell-based, human; conditions: Breast MCF7, 48 h, read-out: Cytotoxicity GI50
Method: as §1, §2

OVCAR-3 (Ovarian) = assay: NCI-60 cytotoxicity assay; type: cell-based, human; conditions: Ovarian OVCAR-3, 48 h, read-out: Cytotoxicity GI50
Method: as §1, §2

SN12C (Renal) = assay: NCI-60 cytotoxicity assay; type: cell-based, human; conditions: Renal SN12C, 48 h, read-out: Cytotoxicity GI50
Method: as §1, §2

UACC-62 (Melanoma) = assay: NCI-60 cytotoxicity assay; type: cell-based, human; conditions: Melanoma UACC-62, 48 h, read-out: Cytotoxicity GI50
Method: as §1, §2

SF-539 (CNS) = assay: NCI-60 cytotoxicity assay; type: cell-based; conditions: Homo sapiens; CNS SF-539, 48 h; read-out: Cytotoxicity GI50
Method: as §1, §2

NCI-60 cancer cell lines = assay: NCI-60 cytotoxicity assay, MGM; type: cell-based; conditions: Homo sapiens; read-out: MGM (average GI50 across NCI-60 panel)
Method: as §1, §2

[2] = human, 6 h, 1 μM; for % Bound: plasma
Method: (§3) Analysis of Plasma Protein Binding and Stability in Human and Mouse Blood Plasma by Equilibrium Dialysis. Frozen plasma (stored at −80° C.) was thawed immediately in a 37° C. water bath. The working solutions of test compound and control compound were prepared in DMSO at 200 μM concentration, and the working solutions were spiked into plasma. The final concentration of compound was 1 μM. The final concentration of DMSO was 0.5%. Ketoconazole was used as positive control in the assay. The dialysis membranes were soaked in ultrapure water for 60 min to separate strips, then in 20% ethanol for 20 min, and then finally in dialysis buffer for 20 min. For equilibrium dialysis, each cell contained plasma sample (150 μL) and was dialyzed against an equal volume of dialysis buffer (PBS). The assay was performed in duplicate. The dialysis plate was sealed and incubated at 37° C. with 5% CO2 at 100 rpm for 6 h. At the end of incubation, samples (50 μL) from both buffer and plasma chambers were transferred to wells of a 96-well plate. Plasma (50 μL) was added to each buffer sample and an equal volume of PBS was added to the collected plasma sample. Cold acetonitrile (400 μL) containing internal standards (IS, 100 nM alprazolam, 200 nM labetalol, 200 nM imipramine and 2 μM ketoprofen) was added to precipitate protein and release compounds. Samples were vortexed for 2 min and centrifuged for 30 min at 3,220 g. An aliquot (100 μL) of the supernatant was diluted with ultra-pure H2O (100 μL), and the mixture was used for LC-MS/MS analysis. For stability determination in plasma, a spiked plasma sample (50 μL) was transferred to a new plate and incubated at 37° C., 5% CO2 for 0 and 6 h. At designated time points, PBS (50 μL) was added and mixed thoroughly, followed by the addition of room temperature quench solution [400 μL of acetonitrile containing internal standards (IS, 100 nM alprazolam, 200 nM labetalol, 200 nM imipramine and 2 μM ketoprofen)] to precipitate protein and release compounds. Samples were vortexed for 2 min and centrifuged for 30 min at 3,220 g. An aliquot (400 μL) of the supernatant was diluted by ultra-pure H2O, and the mixture was used for LC-MS/MS analysis. The concentrations of test compounds in the buffer and plasma chambers were determined from peak area ratios.

[3] = human, 1 μM
Method: as §3

in vivo = conditions: male, CD1, mouse, iv, 20 mg/kg
Method: Brain Penetration Studies. […] The concentrations were determined by LC-MS/MS with direct measurement of the plasma samples. The brain tissue was homogenized with water using a 3:1 ratio of water (mL) to brain (g) before determination of the concentrations (ng/mL) in the brain homogenates, and the homogenate values then were multiplied by a factor of 4 to obtain the brain concentrations (ng/g).

Row | Structure (SMILES) | Recovery (%)AP-BL (Caco-2 cells) | Recovery (%)BL-AP (Caco-2 cells) | Papp (A→B) (Caco-2 cells) | Papp (B→A) (Caco-2 cells) | Body Weight % ([1]; 5 mg/Kg IV) | Body Weight % ([1]; 10 mg/Kg IV) | Body Weight % ([1]; 15 mg/Kg IV) | Body Weight % ([1]; 20 mg/Kg IV) | Body Weight % ([1]; 30 mg/Kg IV) | Maximum tolerated dose (MTD) [1] | GI50 (DU-145 (Prostate); Homo sapiens) | GI50 (HCT-116 (Colon); Homo sapiens) | GI50 (HOP-62 (Lung); Homo sapiens) | GI50 (MCF7 (Breast); Homo sapiens) | GI50 (OVCAR-3 (Ovarian); Homo sapiens) | GI50 (SN12C (Renal); Homo sapiens) | GI50 (UACC-62 (Melanoma); Homo sapiens) | GI50 (SF-539 (CNS)) | GI50 (NCI-60 cancer cell lines) | % Recovery [2] | also measured
1 | COc1cc2c3c(n(CCCNCCO)c(=O)c2cc1OC)-c1nc2c(cc1C3=O)OCO2 [G105, 6-(3-((2-Hydroxyethyl)amino)propyl)-2,3-dimethoxy-5H-[1,3]dioxolo[4″,5″:5′,6′]pyrido[3′,2′:4,5]cyclopenta[1,2-c]isoquinoline-5,12(6H)-dione] | 75.07% | 95.77% | 2.39 10^−6, cm/s | 18.16 10^−6, cm/s | 97.2% | 95.5% | 79.2% | 82% | 74.7% | 20 mg/kg | 2710 nM | 1250 nM | 420 nM | 260 nM | 5650 nM | 3940 nM | 2380 nM | 1000 nM | 2950 nM | 99.38% | Efflux Ratio (Caco-2 cells): 7.60; γ-H2AX/GAPDH, % Relative to Vehicle (γ-H2AX; MOLT-4, IV 10 mg/kg, 3 h): 60.98 ± 8.93%; γ-H2AX/GAPDH, % Relative to Vehicle (γ-H2AX; MOLT-4, IV 10 mg/kg, 9 h): 172.03 ± 47.41%; γ-H2AX/GAPDH, % Relative to Vehicle (γ-H2AX; MOLT-4, IV 20 mg/kg, 3 h): 56.62 ± 11.87%; γ-H2AX/GAPDH, % Relative to Vehicle (γ-H2AX; MOLT-4, IV 20 mg/kg, 9 h): 109.66 ± 28.34%; GI50 (DU-145 (Prostate)): 2710 nM; GI50 (HCT-116 (Colon)): 1250 nM; GI50 (HOP-62 (Lung)): 420 nM; GI50 (MCF7 (Breast)): 260 nM; GI50 (OVCAR-3 (Ovarian)): 5650 nM; GI50 (SN12C (Renal)): 3940 nM; GI50 (UACC-62 (Melanoma)): 2380 nM; % Bound [2]: 80.88%; % Stability at 6 hrs [3]: 95.42%; Vd (in vivo): 29 L/kg
2 | COc1cc2c3c(n(CCCN4CCOCC4)c(=O)c2cc1OC)-c1nc2c(cc1C3=O)OCO2 [G101, 2,3-Dimethoxy-6-(3-morpholinopropyl)-5H-[1,3]dioxolo[4″,5″:5′,6′]pyrido[3′,2′:4,5]cyclopenta[1,2-c]isoquinoline-5,12(6H)-dione] | – | – | – | – | – | – | – | – | – | – | 420 nM | 460 nM | 51 nM | 39 nM | 4610 nM | 2720 nM | 150 nM | 230 nM | 930 nM | – | –
3 | COc1cc2c3c(n(CCCNC(C)C)c(=O)c2cc1OC)-c1nc2c(cc1C3=O)OCO2 [G103, 6-(3-(Isopropylamino)propyl)-2,3-dimethoxy-5H-[1,3]dioxolo [4″,5″:5′,6′]pyrido[3′,2′:4,5]cyclopenta[1,2-c]isoquinoline-5,12(6H)-dione] | 36.17% | 75.54% | 1.55 10^−6, cm/s | 8.95 10^−6, cm/s | 92.4% | 93% | 93.9% | 86% | 85.1% | 50 mg/kg | 1050 nM | 1040 nM | 470 nM | 100 nM | 14300 nM | 10600 nM | 9840 nM | 1520 nM | 2190 nM | 88.05% | Body Weight % ([1]; 40 mg/Kg IV): 85.3%; Body Weight % ([1]; 50 mg/Kg IV): 86.6%; Body Weight % ([1]; 60 mg/Kg IV): 74%; % Bound [2]: 82.60%; % Stability at 6 hrs [3]: 94.96%; Cmax (in vivo): 3810 ng/g
4 | CCNCCCn1c2c(c3cc(OC)c(OC)cc3c1=O)C(=O)c1cc3c(nc1-2)OCO3 [G104, 6-(3-(Ethylamino)propyl)-2,3-dimethoxy-5H-[1,3]dioxolo[4″,5″:5′,6′]pyrido [3′,2′:4,5]cyclopenta[1,2-c]isoquinoline-5,12(6H)-dione] | 54.60% | 81.64% | 1.69 10^−6, cm/s | 16.04 10^−6, cm/s | 92.4% | 95.2% | 87% | 83.3% | 88.8% | 30 mg/kg | 550 nM | 1180 nM | 200 nM | 75 nM | 11300 nM | 4610 nM | 1810 nM | 680 nM | 1450 nM | 83.58% | Efflux Ratio (Caco-2 cells): 9.51; Body Weight % ([1]; 40 mg/Kg IV): 78.8%; γ-H2AX/GAPDH, % Relative to Vehicle (γ-H2AX; MOLT-4, IV 15 mg/kg, 3 h): 71.86 ± 8.95%; γ-H2AX/GAPDH, % Relative to Vehicle (γ-H2AX; MOLT-4, IV 15 mg/kg, 9 h): 138.12 ± 23.51%; γ-H2AX/GAPDH, % Relative to Vehicle (γ-H2AX; MOLT-4, IV 30 mg/kg, 3 h): 47.29 ± 12.20%; γ-H2AX/GAPDH, % Relative to Vehicle (γ-H2AX; MOLT-4, IV 30 mg/kg, 9 h): 168.88 ± 39.58%; % Bound [2]: 81.21%; % Stability at 6 hrs [3]: 86.15%; Cmax (in vivo): 1610 ng/g; Vd (in vivo): 58.4 L/kg; half-life (in vivo): 7.06 h
5 | COc1cc2c3c(n(CCCn4ccnc4)c(=O)c2cc1OC)-c1nc2c(cc1C3=O)OCO2 [G102, 6-(3-(1H-Imidazol-1-yl)propyl)-2,3-dimethoxy-5H-[1,3]dioxolo[4″,5″:5′,6′]pyrido[3′,2′:4,5]cyclopenta[1,2-c]isoquinoline-5,12(6H)-dione] | – | – | – | – | – | – | – | – | – | – | 58 nM | 310 nM | 29 nM | 26 nM | 33400 nM | 440 nM | 42 nM | 39 nM | 780 nM | – | –
